According to patent publication US4740518A, “4H-benzo(4,5)cyclohepta(1,2-B)thiophene derivatives” (Sandoz Ltd., priority 1983, dated 1988):

Legend:
[1] = Adjuvant arthritis test in the rat (Test A); assay type: in vivo; conditions: for ED50: Rattus norvegicus
Experimental: For this test adjuvant arthritis is induced according to the method of Pearson and Wood, "Arthr. Rheum."2, 440 (1959). Compounds of the invention, e.g. compounds of formula I, are active in this test against developing and established arthritis at dosages of from 5 to 30 mg/kg/day.

[2] = Yeast-induced fever test in the rat (Test B); assay type: in vivo, male rats (Sprague-Dawley); conditions: for ED50: Rattus norvegicus, read-out: Yeast fever ED50
Experimental: For this test male rats (Sprague-Dawley) of 130-180 g are fasted overnight. Body temperature is measured the following morning using a thermistor rectal probe connected to a telethermometer. 1 ml/100 g body weight of a 15% suspension of dried baker's yeast in saline is then injected s.c.. Body temperature is measured 2 hours later and this value taken as the initial temperature. 6 hours after yeast injection the test animals receive an oral dosage of the test substance suspended in 0.5% tragacanth or tragacanth alone (control). Body temperature is again measured after a further 2 hours.
Increase in temperature for each rat is calculated and expressed as a % of average increase determined in the control group (ca. 2.3° C. above normal). The ED50, estimated by regression analysis, is taken as the dosage at which increase in rectal temperature is 50% of that in the control group. Compounds of the invention, e.g. compounds of formula I, are active in this test at dosages of from 15 to 60 mg/kg.

[3] = Arthritis pain test in the rat (Test C); assay type: in vivo, male rats (OFA); conditions: for ED50: Rattus norvegicus, read-out: Arthritis pain ED50
Experimental: For this test male rats (OFA) of 110-120 g are treated with 0.1 ml of a Mycobacterium butyricum suspension in paraffin oil (0.6 mg Mycobact./0.1 ml oil) injected i.c. into the tail root. Marked arthritis in the hind-paws develops ca. 12 days after treatment. 30 mins. before administration of test-substance, control measurement is performed by flexing the foot joint of the right or left hind-paw using a Statham transducer until vocalisation occurs. […] Test substance is administered orally and the flexion procedure repeated 1,3 and 5 hours subsequently. The pressure at which vocalisation occurs is noted, the value recorded for each rat at each interval being the average value of three successive measurements. Animals in which the vocalisation threshold is doubled with respect to the control measurement are considered to be protected. The ED50 estimated for each post-treatment time according to the Probit method is taken as the dosage at which 50% of animals are protected. Compounds of the invention, e.g. compounds of formula I, are active in this test at dosages of from 3.2 to 100 mg/kg.

| SMILES | ED50 ([1]; Test A, developing arthritis, compound A as cis/trans (Z,E) isomer mixture, read-out: Developing arthritis ED50) [mg/kg] | ED50 ([1]; Test A, developing arthritis, using cis (Z) isomer, read-out: Developing arthritis ED50) [mg/kg] | ED50 ([1]; Test A, established arthritis, compound A as cis/trans (Z,E) isomer mixture, read-out: Established arthritis ED50) [mg/kg] | ED50 ([1]; Test A, established arthritis, using cis (Z) isomer, read-out: Established arthritis ED50) [mg/kg] | indicated daily dosage relative to acetylsalicylic acid, anti-inflammatory therapy ([1]; pure cis-isomer) | ED50 ([2]; Test B, oral, temperature 2 h after dosing, compound A as cis (Z) isomer) [mg/kg] | indicated daily dosage relative to acetylsalicylic acid, anti-pyretic therapy ([2]; cis-isomer) | ED50 ([3]; Test C, oral, 50% of animals protected, compound A as cis (Z) isomer) [mg/kg] | indicated daily dosage relative to acetylsalicylic acid, analgesic therapy ([3]; cis-isomer) | ED50 ([1]; read-out: Developing arthritis ED50) [mg/kg] | ED50 ([1]; read-out: Established arthritis ED50) [mg/kg] | ED50 ([2]; po, 2 h) [mg/kg] | ED50 ([3]; po) [mg/kg] |
| --- | --- | --- | --- | --- | --- | --- | --- | --- | --- | --- | --- | --- | --- |
| COC1=Cc2ccccc2C(=CC(=O)O)c2ccsc21 [A, [10-methoxy-4H-benzo[4,5]cyclohepta[1,2-b]thiophen-4-ylidene]-acetic acid] | 15 | 8 | 15 | 16 | 1/15 | 22 | 1/7 | 7 | 1/12 | – | – | – | – |
| CC(=O)Oc1ccccc1C(=O)O [B, acetylsalicyclic acid, reference compound] | – | – | – | – | – | – | – | – | – | 140 | 240 | 161 | 90 |
